This is an account of results in article PMC9230136 (Pharmaceutics, 2022).

Molecules are shown by their SMILES. Where two headings read alike, the source gives them in different places.

Data set [1] has as its system A549, MDA-MB-231, HeLa, HT-29 and Jurkat cancer cell lines. Put plainly: Antiproliferative activity over the panel of cancer cell lines. The class given is cell-based, human. The essentials:
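HT-29 grown in RPMI-1640, A549, HeLa and MDA-MB-231 in DMEM, both with 10% FBS. Seeded cells treated after 24 h with 5-fold serial dilutions from 10 μM, in triplicate, for 72 h at 37 °C. Viability read by resazurin fluorescence (ex 535/em 600 nm) after 3–4 h.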

Details of data set [2]: method as in PMID 31459105. The note with it: cited from earlier work.
Details of data set [3]: method as in PMID 31459105. The note with it: cited from earlier work. This is another data set of the same source.
The subject of data set [4] is Bovine brain tubulin. Put plainly: Inhibition of [3H]colchicine binding to tubulin. The note with it: tubulin 0.5 µM, [3H]colchicine 5 µM, compound 5 µM. Here is the method:
(§1) Bovine brain tubulin was purified as described previously. To evaluate the effects of the compounds on tubulin assembly in vitro [35], varying concentrations were preincubated with 10 μM tubulin in 0.8 M monosodium glutamate (pH 6.6) at 30 °C and the reaction mixtures then cooled to 0 °C. After addition of GTP, the mixtures were transferred to 0 °C cuvettes in Beckman Coulter (Brea, CA, USA) DU-7400/DU-7500 recording spectrophotometers equipped with electronic temperature controllers and warmed to 30 °C, and the assembly of tubulin was observed turbidimetrically. […] Inhibition of colchicine binding to tubulin was measured as described before, except that the reaction mixtures contained 0.5 μM tubulin and 5 μM each of [^3H]colchicine and test compound. Only one DEAE-cellulose filter was used per sample, and filtration was by gravity.

Another data set deals with MDA-MB-231. Put plainly: Antiproliferative assay (resazurin, 72 h). The class given is cell-based, human. As to conditions: mean ± SE, 72 h. The essentials:
(§2)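 HT-29 cells were cultured in RPMI-1640, while MDA-MB-231, A549 and HeLa were cultured in DMEM, both with 10% FBS. Cells were treated 24 h after seeding with 5-fold serial dilutions starting at 10 μM, in triplicate, and incubated for 72 h at 37 °C. Resazurin fluorescence was read at ex 535/em 600 nm.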
In general terms: The colour change of resazurin is a common sign of viable cells or microbes.

For the next data set, the system named is Jurkat. Put plainly: Antiproliferative assay (resazurin, 72 h). The format is cell-based, human. Put shortly: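 Jurkat T-cell leukemia cells, grown in RPMI-1640 containing 10% fetal bovine serum, 115 units/mL penicillin G and 115 μg/mL streptomycin, were plated in 96-well plates. After 24 h they received serial 5-fold dilutions of test compounds starting at 10 μM, in triplicate, and were kept 72 h at 37 °C in 5% CO2.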

In the next data set the test system is HeLa. The data set can be described thus: Antiproliferative assay (resazurin, 72 h). The class given is cell-based, human. The essentials: as §2
Data set [5] concerns Bovine brain tubulin. Put plainly: Inhibition of tubulin polymerization. The format is biochemical. Here is the method:
as §1

The next data set relates to Zebrafish embryos. Put plainly: Acute toxicity assessment in zebrafish embryos. The class given is in vivo, Danio rerio. The note with it: 100 nM. How it is done: Zebrafish embryos at 72 h post fertilization (hpf) were selected for the acute toxicity assay since, at that time, morphogenesis and function of the primary organ systems are complete. Embryos at 72 hpf were assayed in a 12-well plate, 20 larvae/well for each experimental condition.
The zebrafish embryos were treated as described in the Biological Results and Discussion section using drug concentrations selected on the basis of in vitro experimental data. The drugs were added directly to the fish water from 10 mM stock solutions in DMSO of tested compounds. […] CA-4P was employed as the reference compound.
The experiment was carried out at a constant temperature (28.5 °C) in the dark, and at 24 and 48 h time points, zebrafish were subjected to visual observation and image acquisition under a stereomicroscope (Nikon SMZ745T; Nikon, Japan). The number of dead zebrafish embryos for each condition was recorded, and morphological defects were evaluated. The survival rate (%) after treatment was calculated.

The subject of the next data set is quiescent PBLs. The data set can be described thus: Cytotoxicity in human PBLs, resting. The note with it: PBL not stimulated with PHA, 72 h, read-out: IC50 PBLresting. The format is cell-based. The source says:
(§3) Human PBLs were obtained from healthy donors by separation on a Lymphoprep^TM (Serumwerk Bernburg AG) gradient and were used for the evaluation of the cytotoxic potential of compounds under study in normal human cells. Buffy coats were obtained from the Blood Transfusion Service, Azienda Ospedaliera of Padova and provided at this institution for research purposes without identifier. The samples were not obtained specifically for this study, and for this reason ethical approval was not required. Informed consent was obtained from blood donors according to Italian law no. 219 (21 October 2005). Data were treated by the Blood Transfusion Service according to Italian law on personal data management “Codice in materia di protezione dati personali” (Testo Unico D.L. Giugno 30, 2003 196).
(§4) After extensive washing with saline solution (BioConcept, Hank’s Buffered Saline Solution), quiescent PBLs were resuspended (1.0 × 10^6 cells/mL) in RPMI-1640 medium supplemented with 10% fetal bovine serum. Cytotoxicity evaluations were conducted also in cultures of proliferating PBLs, stimulated with […] PHA (Irvine Scientific). Both resting and proliferating lymphocytes were seeded in 96-well plates and maintained overnight at 37 °C in a humidified 5% CO2 incubator. Serial (5-fold) dilutions of the tested compounds were added, and viability was determined 72 h later by the resazurin viability assay as described above.

For a further data set, the system named is PBL stimulated with PHA. Put plainly: Cytotoxicity in human PBLs stimulated with PHA. The class given is cell-based. As to conditions: 72 h, read-out: IC50 PBLPHA.
Source text: as §3, §4

In data set [6] the test system is HeLa cells. The data set can be described thus: Apoptosis by annexin-V-FITC/PI flow cytometry. The format is cell-based, human. Here is the method: Surface exposure of phosphatidylserine on apoptotic cells was measured by flow cytometry with a Beckman Coulter Cytomics FC500 (Beckman Coulter Italia, Milano, Italy) by adding annexin-V conjugated to fluorescein isothiocyanate (FITC) to cells according to the manufacturer’s instructions (Annexin-V Fluos, Roche Diagnostic, Monza, Italy). Simultaneously, the cells were stained with PI. Excitation was set at 488 nm, and the emission filters were at 525 and 585 nm, respectively, for FITC and PI.
For orientation: In flow cytometry, cells or beads pass a laser one at a time.

For data set [7], the system named is HeLa cells. Put plainly: EdU cell proliferation assay. The class given is cell-based, human. The note with it: 25 or 50 nM; 24 h. How it is done: HeLa cells were seeded in a 6-well plate and, after a 24 h incubation, were treated with the desired compounds as indicated in the Biological Results and Discussion section. Cells were re-incubated for one day and then labeled with EdU (10 μM) for 3 h under cell culture conditions. Cells were harvested by centrifugation before proceeding with the fixation step using 3.7% formaldehyde. Next, permeabilization with 0.5% Triton X-100 was performed. The reaction cocktail was prepared and added to each well (100 μL/well) following the manufacturer’s instructions (EdU-Click 488, base click, Sigma-Aldrich. Milano Italy), and the plate was incubated at room temperature for 30 min in the dark. Cells were washed 2 times with phosphate-buffered saline (PBS) before reading samples with a Beckman Coulter Cytomics FC500 instrument (λex/λem = 496/516 nm).

Data set [8] deals with HeLa cells. Put plainly: ROS production (H2DCFDA). The class given is cell-based, human. The note with it: 10, 50 or 100 nM; 24 h. Here is the method:
(§5) The mitochondrial potential was evaluated in HeLa cells by flow cytometry using the cell membrane permeable cationic dye 5,5′,6,6′-tetrachloro-1,1′,3,3′-tetraethyl-imidacarbocyanine iodide (JC-1) (Molecular Probes) as described previously. The production of ROS was measured in HeLa cells by flow cytometry using 2′,7′-dichlorodihydrofluorescein diacetate (H2DCFDA) (Molecular Probes) as described previously.

The test system of data set [9] is HeLa cells. The data set can be described thus: Cell cycle analysis (PI, flow cytometry). The class given is cell-based, human. As to conditions: 24 h; for cells arrested in the G2/M phase: 100 nM. How it is done:
HeLa cells were seeded at 100,000 cells per well on 6-well tissue culture plates. After 24 h, cells were treated with different test compound concentrations or DMSO for another 24 h. Cells were then fixed and stained with propidium iodide (PI). The fluorescence intensity of 10,000 single-cell events was measured with a Beckman Coulter Cytomics FC500 instrument (Beckman Coulter Italia, Milano, Italy) and the data were analyzed with MultiCycle for Windows software from Phoenix Flow Systems (San Diego, CA, USA).

The subject of data set [10] is HeLa cells. The data set can be described thus: Mitochondrial membrane potential (JC-1). The format is cell-based, human. The note with it: Figure 8A representative plot; concentration not given. How it is done:
as §5

The test system of the next data set is A549. Put plainly: Antiproliferative assay (resazurin, 72 h). The format is cell-based, human. The essentials:
as §2

A further data set has as its system HT-29. Put plainly: Antiproliferative assay (resazurin, 72 h). The class given is cell-based, human. The essentials:
as §2

Where [11] appears, read: tubulin at 10 μM, read-out: Tubulin Assembly IC50 ± SD.

As a reminder, the IC50 is the concentration that gives 50% inhibition. As usually defined, the melting point is the temperature of the solid-liquid transition.

With `COc1ccc(/C=C\c2cc(OC)c(OC)c(OC)c2)cc1O` [CA-4, combretastatin A-4, reference compound], the IC50 in data set [1] (Homo sapiens, against three of the five lines (not A549, HT-29), read-out: IC50's, range) is 1 to 5 nM; in the data set with MDA-MB-231 (Homo sapiens, MDA-MB-231, Table 1), 5 ± 2 nM; in the data set on Jurkat (Homo sapiens, Jurkat, Table 1, mean ± SE, 72 h), 1 ± 0.2 nM; in the data set with HeLa (Homo sapiens, HeLa, Table 1, mean ± SE) it was 4 ± 1 nM; with Bovine brain tubulin [5] (setting [11]), […]; with quiescent PBLs (Homo sapiens) it was above 10000 nM. In the data set on PBL stimulated with PHA (Homo sapiens), the half-maximal inhibitory concentration (IC50) was 18.6 ± 3.8 nM. The biological half-life entry in [2] was “short biological half-life”. In addition, in [3], the aqueous solubility entry is listed as “very poor aqueous solubility”. Moreover, in the data set on Bovine brain tubulin [4], the “Colchicine Binding % Inhibition ± SD” value was 97 ± 0.1%. The “lethality” value in the data set with Zebrafish embryos came out at 100%. Further, the “Results (toxicity evaluation)” value in the data set on Zebrafish embryos (72 hpf embryos) is recorded as “Toxic”.

Molecule `Cc1cc(Nc2ccc(F)c(Cl)c2)n2nc(NCCCc3ccccc3)nc2n1` [Compound 8r, N^7-(3-Chloro-4-fluorophenyl)-5-methyl-N^2-(3-phenylpropyl)-[1,2,4]triazolo [1,5-a]pyrimidine-2,7-diamine] had a melting point of 168 to 170 °C. Also, the “concentration from which apoptosis was induced” value in the data set with HeLa cells [6] is listed as 50 nM. Moreover, the IC50 in [1] (Homo sapiens, mean over the five cancer cell lines, read-out: mean IC50 (antiproliferative activity)) came to 101 nM. Besides, the “EdU incorporation / cell proliferation” value in the data set with HeLa cells [7] is recorded as “effective in reducing HeLa cell proliferation”. Further, the ROS production entry with HeLa cells [8] was “significantly increased ROS production in a dose-dependent manner”. Also, in the data set with HeLa cells [9], the “cells arrested in the G2/M phase” value was “more than 70%” and the “concentration at which G2/M arrest began” value was determined as 25 nM. Moreover, the “Colchicine Binding % Inhibition ± SD” value in the data set on Bovine brain tubulin [4] worked out at 87 ± 0.8%. The “Monomers (%) (monomeric JC-1)” value with HeLa cells [10] is 16.6%. In the data set with A549 (Homo sapiens, A549, Table 2, mean ± SE), this molecule had a 50% inhibitory concentration (IC50) of 81 ± 2 nM. 98 ± 20 nM corresponded to half-maximal inhibition in the data set on MDA-MB-231 (Homo sapiens, MDA-MB-231, Table 2) (IC50). Also, the IC50 with Jurkat (Homo sapiens, Jurkat, Table 2, mean ± SE, 72 h) amounted to 230 ± 20 nM. This molecule also had an IC50 in the data set with HeLa (Homo sapiens, HeLa, Table 2, mean ± SE) of 35 nM. The same molecule came in with an IC50 in the data set with HT-29 (Homo sapiens, HT-29, Table 2, mean ± SE, 72 h) of 58 ± 10 nM. In addition, the “fold more potent than CA-4, tubulin polymerization” value in the data set with Bovine brain tubulin [5] is “about 2 fold”. In addition, in the data set on Bovine brain tubulin [5] (read-out: IC50 tubulin polymerization), the half-maximal inhibitory concentration (IC50) was found to be 390 nM. For the same molecule, in the data set on Bovine brain tubulin [5] (setting [11]), the IC50 was 520 ± 60 nM. The IC50 in the data set on quiescent PBLs (Homo sapiens) was above 10000 nM. Further, the IC50 in the data set with PBL stimulated with PHA (Homo sapiens) is above 10000 nM.

With `COc1cc(Nc2cc(C)nc3nc(NCCCc4ccccc4)nn23)cc(OC)c1OC` [Compound 7ad], in the data set with HeLa cells [6], the “concentration from which apoptosis was induced” value was 50 nM. The IC50 is below 1000 nM in data set [1] (four of the five cell lines, read-out: IC50 values against four of the five cell lines); 190 ± 20 nM in the data set with A549 (Table 1, mean ± SE); 91 ± 8 nM in the data set on MDA-MB-231 (Table 1); above 2000 nM in the data set with Jurkat; 2720 ± 130 nM with Jurkat (Table 1, mean ± SE, 72 h); 67 ± 7 nM with HeLa (Table 1, mean ± SE). Further, the IC50 is 142 nM in the data set on HT-29; 140 ± 11 nM in the data set on HT-29 (Table 1, mean ± SE, 72 h); 380 ± 60 nM in the data set on Bovine brain tubulin [5] (setting [11]); above 10000 nM with quiescent PBLs; above 10000 nM with PBL stimulated with PHA. Besides, the “EdU incorporation / cell proliferation” value with HeLa cells [7] was “effective in reducing HeLa cell proliferation”. In addition, in the data set with HeLa cells [8], the ROS production entry is “significantly increased ROS production in a dose-dependent manner”. In addition, the “cells arrested in the G2/M phase” value in the data set with HeLa cells [9] was “more than 70%”. Also, the “concentration at which G2/M arrest began” value in the data set on HeLa cells [9] came to 25 nM. The “Colchicine Binding % Inhibition ± SD” value with Bovine brain tubulin [4] is on record as 55 ± 3%. In addition, in the data set with HeLa cells [10], the “Monomers (%) (monomeric JC-1)” value is recorded as 33.4%.
